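These data come from cells grown in 96-well plates and exposed to compound for 48 hours at five concentrations. GI50 is the concentration that inhibits growth by half.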 Activity calls are given as the source filed them. Cut-off read from the data, not from the text of the source: active = GI50 up to about 1.1 µM and inactive = higher.
Legend:
Experiment in all cases: NCI tumour cell line growth inhibition, 48 h
NCI-H23 = system: NCI-H23
LOX IMVI = system: LOX IMVI
COLO 205 = system: COLO 205
UACC-257 = system: UACC-257
U-251 = system: U-251
SK-MEL-2 = system: SK-MEL-2
SR = system: SR
OVCAR-5 = system: OVCAR-5
K562 = system: K562
IGROV-1 = system: IGROV-1
OVCAR-8 = system: OVCAR-8
UACC-62 = system: UACC-62
CAKI-1 = system: CAKI-1
SF-295 = system: SF-295
HOP-62 = system: HOP-62
MDA-N = system: MDA-N
CCRF-CEM = system: CCRF-CEM
KM12 = system: KM12
NCI-H226 = system: NCI-H226

SMILES | GI50 (NCI-H23) | GI50 (LOX IMVI) | GI50 (COLO 205) | GI50 (UACC-257) | GI50 (U-251) | GI50 (SK-MEL-2) | GI50 (SR) | GI50 (OVCAR-5) | GI50 (K562) | GI50 (IGROV-1) | GI50 (OVCAR-8) | GI50 (UACC-62) | GI50 (CAKI-1) | GI50 (SF-295) | GI50 (HOP-62) | GI50 (MDA-N) | GI50 (CCRF-CEM) | GI50 (KM12) | GI50 (NCI-H226)
Cc1ccc(C)c(NC(=O)C(Cc2c[nH]c3ccccc23)NC(=O)OCc2ccccc2)c1 (stereo unspecified) | 21.3 µM (inactive) | 37.3 µM (inactive) | 13.2 µM (inactive) | 10.6 µM (inactive) | 17.1 µM (inactive) | 16 µM (inactive) | 14.3 µM (inactive) | 25.6 µM (inactive) | 12.7 µM (inactive) | 18.2 µM (inactive) | 17.5 µM (inactive) | 15.9 µM (inactive) | 16.4 µM (inactive) | 25.8 µM (inactive) | 48.8 µM (inactive) | 29.3 µM (inactive) | 1.42 µM (inactive) | 16.5 µM (inactive) | 
COC(=O)[C@H](Cc1c[nH]c2ccccc12)NC(=O)c1ccccc1I |  | 19.7 µM (inactive) | 17.5 µM (inactive) | 18.8 µM (inactive) | 31 µM (inactive) | 19.9 µM (inactive) | 24.2 µM (inactive) | > 100 µM (inactive) | 29.3 µM (inactive) | 31.8 µM (inactive) | 31.7 µM (inactive) | 18.2 µM (inactive) | 20.7 µM (inactive) | 42.4 µM (inactive) | 30.5 µM (inactive) | 8.41 µM (inactive) |  | 41.4 µM (inactive) | 26.8 µM (inactive)
CC(=O)OC(C(=O)NNC(=O)OC(C)(C)C)c1ccccc1 (stereo unspecified) | > 100 µM (inactive) |  | > 100 µM (inactive) | > 10 µM (inactive) | > 100 µM (inactive) | > 100 µM (inactive) | > 100 µM (inactive) | > 100 µM (inactive) | > 100 µM (inactive) | > 100 µM (inactive) | > 100 µM (inactive) | > 100 µM (inactive) | > 100 µM (inactive) | > 100 µM (inactive) | > 100 µM (inactive) | > 100 µM (inactive) |  | > 100 µM (inactive) | > 100 µM (inactive)
Cc1ccc(S(=O)(=O)OC2C(C3COC(C)(C)O3)OC3OC(C)(C)OC32)cc1 (stereo unspecified) | > 100 µM (inactive) | > 100 µM (inactive) |  | > 100 µM (inactive) | > 100 µM (inactive) | > 100 µM (inactive) | > 100 µM (inactive) | > 100 µM (inactive) | > 100 µM (inactive) | > 100 µM (inactive) | > 100 µM (inactive) | > 100 µM (inactive) | > 100 µM (inactive) | > 100 µM (inactive) | > 100 µM (inactive) | > 100 µM (inactive) | > 100 µM (inactive) | > 100 µM (inactive) | > 100 µM (inactive)
Cc1ccc(OC2CC(n3cnc4ncnc(Cl)c43)OC2Oc2ccc(C)cc2)cc1 (stereo unspecified) | 24.8 µM (inactive) | 5.51 µM (inactive) | 14.8 µM (inactive) | 44.8 µM (inactive) | 36.1 µM (inactive) | 13.6 µM (inactive) | 2.48 µM (inactive) | 22 µM (inactive) |  | 17 µM (inactive) | 8.32 µM (inactive) | 14.1 µM (inactive) | 2.11 µM (inactive) | 21.1 µM (inactive) | 27.3 µM (inactive) | 22.4 µM (inactive) |  | 18.4 µM (inactive) | 13.7 µM (inactive)
C/C(=N\NC(N)=S)c1cccs1.OB(O)c1ccccc1 | > 100 µM (inactive) | > 100 µM (inactive) | > 100 µM (inactive) |  | > 100 µM (inactive) |  | > 100 µM (inactive) | > 100 µM (inactive) | > 100 µM (inactive) | > 100 µM (inactive) | > 100 µM (inactive) | > 100 µM (inactive) |  | > 100 µM (inactive) | > 100 µM (inactive) | > 100 µM (inactive) | > 100 µM (inactive) | > 100 µM (inactive) | > 100 µM (inactive)
CC1NC(C(=O)O)Cc2cc(O)c(O)cc21 (stereo unspecified) | > 100 µM (inactive) | > 100 µM (inactive) | > 100 µM (inactive) | > 100 µM (inactive) | > 100 µM (inactive) | > 100 µM (inactive) | > 100 µM (inactive) | > 100 µM (inactive) |  | > 100 µM (inactive) | > 100 µM (inactive) | > 100 µM (inactive) | > 100 µM (inactive) | > 100 µM (inactive) | > 100 µM (inactive) | > 100 µM (inactive) | 91.2 µM (inactive) | > 100 µM (inactive) | > 100 µM (inactive)
c1ccc(Cc2nc(Cc3n[nH]c(Cc4ccccc4)n3)n[nH]2)cc1 | > 100 µM (inactive) | > 100 µM (inactive) | > 100 µM (inactive) | > 100 µM (inactive) | > 100 µM (inactive) | > 100 µM (inactive) | > 100 µM (inactive) | > 100 µM (inactive) | > 100 µM (inactive) | > 100 µM (inactive) | > 100 µM (inactive) | > 100 µM (inactive) |  | > 100 µM (inactive) | > 100 µM (inactive) | > 100 µM (inactive) | > 100 µM (inactive) | > 100 µM (inactive) | 
O=C(NC(Cc1c[nH]cn1)C(=O)N1CCCC1)C1CCCC1 (stereo unspecified) | > 100 µM (inactive) | > 100 µM (inactive) | > 100 µM (inactive) |  | > 100 µM (inactive) |  | 54.1 µM (inactive) | > 100 µM (inactive) | > 100 µM (inactive) | > 100 µM (inactive) | > 100 µM (inactive) | > 100 µM (inactive) | > 100 µM (inactive) | > 100 µM (inactive) | > 100 µM (inactive) | > 100 µM (inactive) | > 100 µM (inactive) | > 100 µM (inactive) | > 100 µM (inactive)
c1ccc(/N=C(\N2CCOCC2)N(CCN2CCOCC2)c2ccccc2)cc1 | > 100 µM (inactive) | > 100 µM (inactive) | > 100 µM (inactive) | > 100 µM (inactive) | > 100 µM (inactive) | > 100 µM (inactive) | > 100 µM (inactive) |  | > 100 µM (inactive) | > 100 µM (inactive) | > 100 µM (inactive) | > 100 µM (inactive) | > 100 µM (inactive) | > 100 µM (inactive) | > 100 µM (inactive) | > 100 µM (inactive) | > 100 µM (inactive) | > 100 µM (inactive) | > 100 µM (inactive)
O=c1c2cc(-c3ccccc3)cnc2sn1-c1ccc([N+](=O)[O-])cc1 | 15.1 µM (inactive) |  | > 100 µM (inactive) | > 100 µM (inactive) | 21.6 µM (inactive) | 35.6 µM (inactive) | > 100 µM (inactive) | > 100 µM (inactive) | 35.8 µM (inactive) | 29.6 µM (inactive) | 33.2 µM (inactive) | 17.7 µM (inactive) | 39.6 µM (inactive) | 27 µM (inactive) | 26.5 µM (inactive) | 60.4 µM (inactive) | 19 µM (inactive) | 38.9 µM (inactive) | 44.5 µM (inactive)
C=C1C2C[C@@H]3O[C@H]4C[C@H]5O[C@@]6(C[C@@H]7O[C@]8(C[C@H](C)[C@@H]9O[C@@H]%10CC(C=O)O[C@@H]%10C[C@@H]9O8)C[C@H](C)[C@@H]7O6)C[C@H]5O[C@H]4[C@H](C)[C@H]3OC(=O)C[C@H]3CC[C@@H]4OC5[C@H]6O[C@]7(CC[C@H]8CC(=C)[C@H](CC[C@@H](C[C@H]1C)O2)O8)CC6O[C@@H]5[C@@H](O7)[C@H]4O3 (stereo partly specified) | < 0.0001 µM (active) | < 0.0001 µM (active) | < 0.0001 µM (active) | < 0.01 µM (active) | < 0.0001 µM (active) |  | < 0.0001 µM (active) |  | < 0.0001 µM (active) | < 0.0001 µM (active) | < 0.0001 µM (active) | < 0.0001 µM (active) | < 0.0001 µM (active) | < 0.0001 µM (active) | < 0.0001 µM (active) | < 0.0001 µM (active) |  | < 0.0001 µM (active) | < 0.0001 µM (active)
COc1ccc(C2SC(=N)Nc3c2c(C)nn3C(=O)c2ccncc2)cc1 (stereo unspecified) | > 100 µM (inactive) | > 100 µM (inactive) | 57.7 µM (inactive) | > 100 µM (inactive) | > 100 µM (inactive) | > 100 µM (inactive) | 21.2 µM (inactive) | > 100 µM (inactive) | 64.7 µM (inactive) | 89.5 µM (inactive) | > 100 µM (inactive) | > 100 µM (inactive) |  | > 100 µM (inactive) | > 100 µM (inactive) | > 100 µM (inactive) | 29.4 µM (inactive) | > 100 µM (inactive) | > 100 µM (inactive)
COc1ccc2c3c(c(=O)n(C)c2c1OC)C=CC(C)(C)O3 | 22.8 µM (inactive) | 33.7 µM (inactive) | 19.7 µM (inactive) | 35.3 µM (inactive) | 30.6 µM (inactive) | 42.6 µM (inactive) | 3.46 µM (inactive) | 82 µM (inactive) |  | 36.1 µM (inactive) | 23.9 µM (inactive) | 37.8 µM (inactive) | 13.5 µM (inactive) | 36.7 µM (inactive) | 80.2 µM (inactive) | 21.7 µM (inactive) | 23.2 µM (inactive) | 21.6 µM (inactive) | 22.2 µM (inactive)
CC(=O)Oc1ccc2ccc(=O)oc2c1OC(C)=O | 32 µM (inactive) | 21.3 µM (inactive) | 24.4 µM (inactive) | > 100 µM (inactive) | 50.2 µM (inactive) | > 100 µM (inactive) | 28 µM (inactive) | > 100 µM (inactive) | 41.9 µM (inactive) | 57.1 µM (inactive) | 35.4 µM (inactive) | 43.9 µM (inactive) | 43.6 µM (inactive) | 41.5 µM (inactive) | 29.5 µM (inactive) | 49.8 µM (inactive) | 10.6 µM (inactive) | 44.4 µM (inactive) | 

Reference: ChEMBL document CHEMBL1201862, “PubChem BioAssay data set” (2004)
